# Laboratory results from PubChem BioAssay AID330 (DTP/NCI, 2004).
# Several values for one entry are separate records, joined by “and”; a condition that tells them apart may be missing. Equal values may be shown once. Toxic doses and inconclusive results are not listed.
# Test system: P388 leukemia ip, CD2F1 mice, survival T/C
# Assay: NCI In Vivo Anticancer Drug Screen. Data for tumor model P388 Leukemia (intraperitoneal) in CD2F1 (CDF1) mice
# Conditions: endpoint: median survival time, higher = longer survival
# Procedure, shortened: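 Mice carrying the transplanted tumor received test compound or vehicle. Survival was recorded in each group, and the value is the treated-group measurement divided by that of the vehicle-treated control group.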
# [1] = dose: 12.5 mg/kg/injection, schedule: Q01DX009 (ip), vehicle: saline
# [2] = dose: 25.0 mg/kg/injection, schedule: Q01DX009 (ip), vehicle: saline
# [3] = dose: 50.0 mg/kg/injection, schedule: Q01DX009 (ip), vehicle: saline
# [4] = dose: 100.0 mg/kg/injection, schedule: Q01DX009 (ip), vehicle: saline
# [5] = dose: 400.0 mg/kg/injection, schedule: Q04DX003 (ip), vehicle: saline sonified
structure (smiles),measurement,setting,value
CC(C)N=C(Cc1ccccc1)NC(C)(C)C,T/C,[1],111 % of control
same,T/C,[2],101 % of control
same,T/C,[3],98 % of control
O=C(NCCCl)Oc1cccn(C(=O)NCCCl)c1=O,T/C,"dose: 12.5 mg/kg/injection, schedule: Q01DX009 (sc), vehicle: saline with Tween-80",106 % of control and 111 % of control
same,T/C,[2],111 % of control and 113 % of control
same,T/C,"dose: 25.0 mg/kg/injection, schedule: Q01DX009 (sc), vehicle: saline with Tween-80",100 % of control and 115 % of control
same,T/C,[3],112 % of control and 118 % of control
same,T/C,"dose: 50.0 mg/kg/injection, schedule: Q01DX009 (sc), vehicle: saline with Tween-80",102 % of control and 115 % of control
same,T/C,"dose: 100.0 mg/kg/injection, schedule: Q01DX009 (sc), vehicle: saline with Tween-80",109 % of control and 115 % of control
same,T/C,"dose: 200.0 mg/kg/injection, schedule: Q01DX009 (sc), vehicle: saline with Tween-80",111 % of control and 123 % of control
same,T/C,"dose: 400.0 mg/kg/injection, schedule: Q01DX009 (sc), vehicle: saline with Tween-80",95 % of control
C[n+]1cc2ccccc2cc1CC(=S)[S-],T/C,"dose: 25.0 mg/kg/injection, schedule: Q01DX009 (ip), vehicle: Klucel (hydroxypropylcellulose) (HPC)",98 % of control
same,T/C,"dose: 50.0 mg/kg/injection, schedule: Q01DX009 (ip), vehicle: Klucel (hydroxypropylcellulose) (HPC)",98 % of control
same,T/C,"dose: 100.0 mg/kg/injection, schedule: Q01DX009 (ip), vehicle: Klucel (hydroxypropylcellulose) (HPC)",99 % of control
same,T/C,"dose: 200.0 mg/kg/injection, schedule: Q01DX009 (ip), vehicle: Klucel (hydroxypropylcellulose) (HPC)",91 % of control
CCN1C(=O)CC(NC2CC(OC3C[C@](O)(C(C)=O)Cc4c(O)c5c(c(O)c43)C(=O)c3c(OC)cccc3C5=O)OC(C)C2O)C1=O (stereo partly specified),T/C,"dose: 6.25 mg/kg/injection, schedule: Q04DX003 (ip), vehicle: water",115 % of control
same,T/C,"dose: 12.5 mg/kg/injection, schedule: Q04DX003 (ip), vehicle: water",103 % of control
same,T/C,"dose: 25.0 mg/kg/injection, schedule: Q04DX003 (ip), vehicle: water",105 % of control
same,T/C,"dose: 50.0 mg/kg/injection, schedule: Q04DX003 (ip), vehicle: water",105 % of control
COc1cc2c(-c3c4c5c(cc(OC)c(OC)c5c5cc(OC)c(OC)cc35)CCN4C)c3c4c(cc(OC)c(OC)c4c2cc1OC)CCN3C,T/C,"dose: 100.0 mg/kg/injection, schedule: Q04DX002 (ip), vehicle: saline",101 % of control
same,T/C,"dose: 200.0 mg/kg/injection, schedule: Q04DX002 (ip), vehicle: saline",102 % of control
same,T/C,"dose: 400.0 mg/kg/injection, schedule: Q04DX002 (ip), vehicle: saline",101 % of control
CC(=O)[C@H]1[C@H](O)C[C@H]2[C@@H]3CCC4=CC(=O)CC[C@]4(C)[C@@]3(F)[C@@H](O)C[C@@]21C,T/C,[4],120 % of control
same,T/C,"dose: 200.0 mg/kg/injection, schedule: Q01DX009 (ip), vehicle: saline",95 % of control
O=C(O)CC(CSCP(=O)(O)O)C(=O)O (stereo unspecified),T/C,"dose: 50.0 mg/kg/injection, schedule: Q01DX005 (ip), vehicle: suspension in saline",102 % of control
same,T/C,"dose: 100.0 mg/kg/injection, schedule: Q01DX005 (ip), vehicle: suspension in saline",91 % of control
same,T/C,"dose: 200.0 mg/kg/injection, schedule: Q01DX005 (ip), vehicle: suspension in saline",89 % of control
COS(C)=O (stereo unspecified),T/C,[3],99 % of control
same,T/C,[4],99 % of control
CCC(=N\NC(=S)NCCN(CC)CC)/C(C)=N/NC(=S)NCCN(CC)CC,T/C,"dose: 1.56 mg/kg/injection, schedule: Q01DX009 (ip), vehicle: saline",94 % of control
same,T/C,"dose: 3.13 mg/kg/injection, schedule: Q01DX009 (ip), vehicle: saline",118 % of control
same,T/C,"dose: 6.25 mg/kg/injection, schedule: Q01DX009 (ip), vehicle: saline",106 % of control
same,T/C,[1],101 % of control
OCCn1nc2c(c1-c1ccccn1)CCCc1ccccc1-2,T/C,"dose: 100.0 mg/kg/injection, schedule: Q04DX002 (ip), vehicle: gum acacia",104 % of control
same,T/C,"dose: 200.0 mg/kg/injection, schedule: Q04DX002 (ip), vehicle: gum acacia",97 % of control
same,T/C,"dose: 400.0 mg/kg/injection, schedule: Q04DX002 (ip), vehicle: gum acacia",92 % of control
CC(C)C1=CC23CCC4C(C)(C(=O)O)CCCC4(C)C2CC1C(C(=O)O)C3C(=O)O (stereo unspecified),T/C,"dose: 50.0 mg/kg/injection, schedule: Q01DX005 (ip), vehicle: saline",97 % of control
same,T/C,"dose: 100.0 mg/kg/injection, schedule: Q01DX005 (ip), vehicle: saline",96 % of control
same,T/C,"dose: 200.0 mg/kg/injection, schedule: Q01DX005 (ip), vehicle: saline",98 % of control
N#CC(C#N)=C(C#N)Nc1ccc(F)cc1,T/C,"dose: 30.0 mg/kg/injection, schedule: Q01DX005 (ip), vehicle: Klucel (hydroxypropylcellulose) (HPC)",91 % of control
same,T/C,"dose: 60.0 mg/kg/injection, schedule: Q01DX005 (ip), vehicle: Klucel (hydroxypropylcellulose) (HPC)",90 % of control
COc1cc2cc3c4cc(OC)c(OC)cc4cc[n+]3c(C)c2cc1OC,T/C,"dose: 25.0 mg/kg/injection, schedule: Q01DX009 (ip), vehicle: other",155 % of control
same,T/C,"dose: 50.0 mg/kg/injection, schedule: Q01DX009 (ip), vehicle: other",152 % of control and 169 % of control and 178 % of control
same,T/C,"dose: 50.0 mg/kg/injection, schedule: Q01DX009 (ip), vehicle: saline sonified",109 % of control
same,T/C,"dose: 50.0 mg/kg/injection, schedule: Q04DX003 (ip), vehicle: other",156 % of control and 158 % of control
same,T/C,"dose: 100.0 mg/kg/injection, schedule: Q01DX009 (ip), vehicle: other",172 % of control and 189 % of control and 198 % of control
same,T/C,"dose: 100.0 mg/kg/injection, schedule: Q01DX009 (ip), vehicle: saline sonified",109 % of control
same,T/C,"dose: 100.0 mg/kg/injection, schedule: Q01DX009 (oral), vehicle: saline",104 % of control
same,T/C,"dose: 100.0 mg/kg/injection, schedule: Q04DX003 (ip), vehicle: other",153 % of control and 169 % of control and 177 % of control
same,T/C,"dose: 200.0 mg/kg/injection, schedule: Q01DX001 (oral), vehicle: saline",104 % of control
same,T/C,"dose: 200.0 mg/kg/injection, schedule: Q01DX009 (ip), vehicle: other",153 % of control and 162 % of control
same,T/C,"dose: 200.0 mg/kg/injection, schedule: Q01DX009 (ip), vehicle: saline sonified",109 % of control
same,T/C,"dose: 200.0 mg/kg/injection, schedule: Q01DX009 (oral), vehicle: saline",104 % of control
same,T/C,"dose: 200.0 mg/kg/injection, schedule: Q04DX003 (ip), vehicle: other",166 % of control (2×) and 199 % of control
same,T/C,"dose: 200.0 mg/kg/injection, schedule: Q04DX003 (oral), vehicle: saline",104 % of control
same,T/C,"dose: 400.0 mg/kg/injection, schedule: Q01DX001 (oral), vehicle: saline",100 % of control
same,T/C,"dose: 400.0 mg/kg/injection, schedule: Q01DX009 (ip), vehicle: other",182 % of control
same,T/C,"dose: 400.0 mg/kg/injection, schedule: Q01DX009 (ip), vehicle: saline sonified",90 % of control
same,T/C,"dose: 400.0 mg/kg/injection, schedule: Q01DX009 (oral), vehicle: saline",100 % of control
same,T/C,"dose: 400.0 mg/kg/injection, schedule: Q04DX003 (ip), vehicle: other",161 % of control and 165 % of control and 191 % of control
same,T/C,[5],150 % of control
same,T/C,"dose: 400.0 mg/kg/injection, schedule: Q04DX003 (oral), vehicle: saline",104 % of control
same,T/C,"dose: 800.0 mg/kg/injection, schedule: Q01DX001 (oral), vehicle: saline",104 % of control
same,T/C,"dose: 800.0 mg/kg/injection, schedule: Q04DX003 (oral), vehicle: saline",109 % of control
Cc1ccc(N=Nc2c(O)n(-c3ccc(C)cc3)c(=S)n(-c3ccc(Br)cc3)c2=O)cc1,T/C,"dose: 100.0 mg/kg/injection, schedule: Q04DX002 (ip), vehicle: saline with Tween-80",99 % of control
same,T/C,"dose: 200.0 mg/kg/injection, schedule: Q04DX002 (ip), vehicle: saline with Tween-80",102 % of control
same,T/C,"dose: 400.0 mg/kg/injection, schedule: Q04DX002 (ip), vehicle: saline with Tween-80",105 % of control
COC(=O)N(C)C1=CCC(C(C)(C)C)CC1 (stereo unspecified),T/C,"dose: 25.0 mg/kg/injection, schedule: Q01DX005 (ip), vehicle: Klucel (hydroxypropylcellulose) (HPC)",103 % of control
same,T/C,"dose: 50.0 mg/kg/injection, schedule: Q01DX005 (ip), vehicle: Klucel (hydroxypropylcellulose) (HPC)",106 % of control
same,T/C,"dose: 100.0 mg/kg/injection, schedule: Q01DX005 (ip), vehicle: Klucel (hydroxypropylcellulose) (HPC)",107 % of control
same,T/C,"dose: 200.0 mg/kg/injection, schedule: Q01DX005 (ip), vehicle: Klucel (hydroxypropylcellulose) (HPC)",105 % of control
C1CC2OC2CC1C1CO1 (stereo unspecified),T/C,"dose: 100.0 mg/kg/injection, schedule: Q01DX009 (ip), vehicle: saline with Tween-80",104 % of control
same,T/C,"dose: 100.0 mg/kg/injection, schedule: Q04DX003 (ip), vehicle: saline sonified",100 % of control
same,T/C,"dose: 200.0 mg/kg/injection, schedule: Q01DX009 (ip), vehicle: saline with Tween-80",104 % of control
same,T/C,"dose: 200.0 mg/kg/injection, schedule: Q04DX003 (ip), vehicle: saline sonified",100 % of control
same,T/C,[5],109 % of control
